Assay results taken from patent US12692261B2, “Substituted heterocyclic compounds and therapeutic uses thereof” (Bayer Aktiengesellschaft, priority 2020, dated 2026).

Tests used:
full-length human CSNK1D = biological target: T1, full-length human CSNK1D (Homo sapiens, UniProt P48730); assay: CSNK1D Assay (ADP-Glo, 1 μM ATP); assay type: biochemical; details: Table 3, read-out: CSNK1D IC50 [mol/l] (median)
T1 construct: N-terminal Glutathion-S-Transferase (GST) and full-length human CSNK1D; purchased Life Technologies PV3665; host or cells: baculovirus infected insect cells
T1 sequence (P48730 whole entry): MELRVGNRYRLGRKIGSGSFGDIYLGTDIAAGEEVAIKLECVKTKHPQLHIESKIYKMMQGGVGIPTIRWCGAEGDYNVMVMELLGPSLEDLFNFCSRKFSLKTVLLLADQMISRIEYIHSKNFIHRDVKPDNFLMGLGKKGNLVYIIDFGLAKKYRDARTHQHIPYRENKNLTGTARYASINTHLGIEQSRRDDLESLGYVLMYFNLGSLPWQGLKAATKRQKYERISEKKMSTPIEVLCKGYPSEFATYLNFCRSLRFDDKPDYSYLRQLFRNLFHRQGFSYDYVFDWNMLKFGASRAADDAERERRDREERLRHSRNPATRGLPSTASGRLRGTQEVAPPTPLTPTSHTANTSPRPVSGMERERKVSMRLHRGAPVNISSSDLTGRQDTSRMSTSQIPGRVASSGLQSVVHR
In short: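 Enzyme is N-terminal GST-tagged full-length human CSNK1D from baculovirus-infected insect cells (typically about 0.5 ng/μL), with a biotinylated peptide substrate and 1 μM ATP. Compound pre-incubated 15 min at 22° C in HEPES pH 7.5 buffer; ADP formed is read by ADP-Glo luminescence.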

[1] = biological target: T2, full-length human CSNK1A1 (Homo sapiens, UniProt P48729); assay: CSNK1A1 Assay 2 (ADP-Glo, 1 μM ATP, substrate biotin-Ahx-KRRRAL-pS-VASLPGL); assay type: biochemical; details: Table 3, read-out: CSNK1A1 Assay 2 IC50 [mol/l] (median)
T2 construct: N-terminal Glutathion-S-Transferase (GST) and full-length human CSNK1A1; purchased Life Technologies PV4174; host or cells: baculovirus infected insect cells
T2 sequence (P48729 whole entry): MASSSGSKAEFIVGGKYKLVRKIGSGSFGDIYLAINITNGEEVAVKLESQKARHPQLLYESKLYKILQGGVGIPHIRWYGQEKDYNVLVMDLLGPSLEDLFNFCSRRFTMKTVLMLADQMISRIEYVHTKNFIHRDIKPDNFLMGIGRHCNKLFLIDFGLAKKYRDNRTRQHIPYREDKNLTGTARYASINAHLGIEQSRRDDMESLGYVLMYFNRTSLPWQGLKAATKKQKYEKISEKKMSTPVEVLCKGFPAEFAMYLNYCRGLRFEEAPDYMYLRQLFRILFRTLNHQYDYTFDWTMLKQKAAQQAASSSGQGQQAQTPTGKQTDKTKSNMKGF
In short: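 GST-tagged full-length human CSNK1A1 from baculovirus-infected insect cells (about 0.0375 ng/μL), preincubated 15 min at 22 °C with compound in HEPES pH 7.5 buffer, with 1 μM ATP and biotin-Ahx-KRRRAL-pS-VASLPGL substrate. ADP formed read by ADP-Glo luminescence.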

Structure (SMILES)	IC50 (full-length human CSNK1D) [µM]	IC50 [1] [µM]
O=C(Nc1cc(-c2[nH]c3c(OC[C@@H]4COCCO4)cc(F)nc3c2-c2ccccn2)ccn1)C(CC(F)F)c1ccc(F)cc1 (single isomer, unassigned) [Example 58, (2R or S)—N-{4-[7-{[(2S)-1,4-dioxan-2-yl]methoxy}-5-fluoro-3-(pyridin-2-yl)-1H-pyrrolo[3,2-b]pyridin-2-yl]pyridin-2-yl}-4,4-difluoro-2-(4-fluorophenyl)butanamide]	0.00303	0.00356
O=C(Nc1cc(-c2[nH]c3c(O[C@H]4CCOC4)ncnc3c2-c2ccccn2)ccn1)C(CC(F)F)c1ccc(F)cc1 (single isomer, unassigned) [Example 74, (2R or S)-4,4-difluoro-2-(4-fluorophenyl)-N-{4-[4-{[(3S)-oxolan-3-yl]oxy}-7-(pyridin-2-yl)-5H-pyrrolo[3,2-d]pyrimidin-6-yl]pyridin-2-yl}butanamide]	0.0554	0.0358
O=C(Nc1cc(-c2[nH]c3ncc(F)nc3c2-c2ccccn2)ccn1)C(CC(F)F)c1ccc(F)cc1 (single isomer, unassigned) [Example 64, (2R or S)-4,4-difluoro-2-(4-fluorophenyl)-N-{4-[2-fluoro-7-(pyridin-2-yl)-5H-pyrrolo[2,3-b]pyrazin-6-yl]pyridin-2-yl}butanamide]	0.0404	0.023
COc1cnc2c(-c3ccccn3)c(-c3ccnc(NC(=O)C(CC(F)F)c4ccc(F)cc4)c3)[nH]c2c1 (single isomer, unassigned) [Example 82, 4,4-difluoro-2-(4-fluorophenyl)-N-{4-[6-methoxy-3-(pyridin-2-yl)-1H-pyrrolo[3,2-b]pyridin-2-yl]pyridin-2-yl}butanamide]	0.00317	0.00268
O=C(Nc1cc(-c2[nH]c3cc(Cl)cnc3c2-c2ccccn2)ccn1)C(CC(F)F)c1ccc(F)cc1 (single isomer, unassigned) [Example 88, (+)—N-{4-[6-chloro-3-(pyridin-2-yl)-1H-pyrrolo[3,2-b]pyridin-2-yl]pyridin-2-yl}-4,4-difluoro-2-(4-fluorophenyl)butanamide]	0.00742	0.00472
O=C(Nc1cc(-c2[nH]c3c(OCC(F)F)ncnc3c2-c2ccccn2)ccn1)C(CC(F)F)c1ccc(F)cc1 (single isomer, unassigned) [Example 80, (2R or S)—N-{4-[4-(2,2-difluoroethoxy)-7-(pyridin-2-yl)-5H-pyrrolo[3,2-d]pyrimidin-6-yl]pyridin-2-yl}-4,4-difluoro-2-(4-fluorophenyl)butanamide]	0.0264	0.0169
